Source: ChEMBL document CHEMBL1955806, “Design, synthesis, single-crystal and preliminary antitumor activity of novel arenesulfonylimidazolidin-2-ones” (2012)

Columns and labels:
Format in all cases: functional
A549 = assay: Growth inhibition of human A549/ATCC cells at 10 uM after 48 hrs by sulforhodamine B assay; details: A549, 48 h, read-out: GI
HOP-92 = assay: Growth inhibition of human HOP92 cells at 10 uM after 48 hrs by sulforhodamine B assay; details: HOP-92, 48 h, read-out: GI
NCI-H226 = assay: Growth inhibition of human NCI-H226 cells at 10 uM after 48 hrs by sulforhodamine B assay; details: NCI-H226, 48 h, read-out: GI
NCI-H23 = assay: Growth inhibition of human NCI-H23 cells at 10 uM after 48 hrs by sulforhodamine B assay; details: NCI-H23, 48 h, read-out: GI
NCI-H460 = assay: Growth inhibition of human NCI-H460 cells at 10 uM after 48 hrs by sulforhodamine B assay; details: NCI-H460, 48 h, read-out: GI
NCI-H522 = assay: Growth inhibition of human NCI-H522 cells at 10 uM after 48 hrs by sulforhodamine B assay; details: NCI-H522, 48 h, read-out: GI
COLO 205 = assay: Growth inhibition of human COLO205 cells at 10 uM after 48 hrs by sulforhodamine B assay; details: COLO 205, 48 h, read-out: GI
HCT-15 = assay: Growth inhibition of human HCT15 cells at 10 uM after 48 hrs by sulforhodamine B assay; details: HCT-15, 48 h, read-out: GI
KM12 = assay: Growth inhibition of human KM12 cells at 10 uM after 48 hrs by sulforhodamine B assay; details: KM12, 48 h, read-out: GI
SW-620 = assay: Growth inhibition of human SW620 cells at 10 uM after 48 hrs by sulforhodamine B assay; details: SW-620, 48 h, read-out: GI
BT-549 = assay: Growth inhibition of human BT549 cells at 10 uM after 48 hrs by sulforhodamine B assay; details: BT-549, 48 h, read-out: GI
Hs-578T = assay: Growth inhibition of human Hs578T cells at 10 uM after 48 hrs by sulforhodamine B assay; details: read-out: GI
MDA-MB-231 = assay: Growth inhibition of human MDA-MB-231/ATCC cells at 10 uM after 48 hrs by sulforhodamine B assay; details: MDA-MB-231, 48 h, read-out: GI
MDA-MB-468 = assay: Growth inhibition of human MDA-MB-468 cells at 10 uM after 48 hrs by sulforhodamine B assay; details: MDA-MB-468, 48 h, read-out: GI
IGROV-1 = assay: Growth inhibition of human IGROV1 cells at 10 uM after 48 hrs by sulforhodamine B assay; details: IGROV-1, 48 h, read-out: GI
OVCAR-3 = assay: Growth inhibition of human OVCAR3 cells at 10 uM after 48 hrs by sulforhodamine B assay; details: OVCAR-3, 48 h, read-out: GI
DU-145 = assay: Growth inhibition of human DU145 cells at 10 uM after 48 hrs by sulforhodamine B assay; details: DU-145, 48 h, read-out: GI
PC-3 = assay: Growth inhibition of human PC3 cells at 10 uM after 48 hrs by sulforhodamine B assay; details: PC-3, 48 h, read-out: GI
CCRF-CEM = assay: Growth inhibition of human CCRF-CEM cells at 10 uM after 48 hrs by sulforhodamine B assay; details: read-out: GI
HL-60(TB) = assay: Growth inhibition of human HL-60(TB) cells at 10 uM after 48 hrs by sulforhodamine B assay; details: HL-60, 48 h, read-out: GI
K562 = assay: Growth inhibition of human K562 cells at 10 uM after 48 hrs by sulforhodamine B assay; details: K562, 48 h, read-out: GI
MOLT-4 = assay: Growth inhibition of human MOLT4 cells at 10 uM after 48 hrs by sulforhodamine B assay; details: MOLT-4, 48 h, read-out: GI
RPMI-8226 = assay: Growth inhibition of human RPMI8226 cells at 10 uM after 48 hrs by sulforhodamine B assay; details: RPMI-8226, 48 h, read-out: GI
SR = assay: Growth inhibition of human SR cells at 10 uM after 48 hrs by sulforhodamine B assay; details: read-out: GI
A498 = assay: Growth inhibition of human A498 cells at 10 uM after 48 hrs by sulforhodamine B assay; details: A498, 48 h, read-out: GI
ACHN = assay: Growth inhibition of human ACHN cells at 10 uM after 48 hrs by sulforhodamine B assay; details: read-out: GI
CAKI-1 = assay: Growth inhibition of human CAKI-1 cells at 10 uM after 48 hrs by sulforhodamine B assay; details: CAKI-1, 48 h, read-out: GI
RXF 393 = assay: Growth inhibition of human RXF393 cells at 10 uM after 48 hrs by sulforhodamine B assay; details: RXF 393, 48 h, read-out: GI
SN12C = assay: Growth inhibition of human SN12C cells at 10 uM after 48 hrs by sulforhodamine B assay; details: read-out: GI
TK-10 = assay: Growth inhibition of human TK10 cells at 10 uM after 48 hrs by sulforhodamine B assay; details: TK-10, 48 h, read-out: GI
UO-31 = assay: Growth inhibition of human UO31 cells at 10 uM after 48 hrs by sulforhodamine B assay; details: UO-31, 48 h, read-out: GI
LOX IMVI = assay: Growth inhibition of human LOXIMVI cells at 10 uM after 48 hrs by sulforhodamine B assay; details: read-out: GI
Malme-3M = assay: Growth inhibition of human MALME-3M cells at 10 uM after 48 hrs by sulforhodamine B assay; details: read-out: GI
SK-MEL-2 = assay: Growth inhibition of human SK-MEL-2 cells at 10 uM after 48 hrs by sulforhodamine B assay; details: SK-MEL-2, 48 h, read-out: GI
SK-MEL-28 = assay: Growth inhibition of human SK-MEL-28 cells at 10 uM after 48 hrs by sulforhodamine B assay; details: SK-MEL-28, 48 h, read-out: GI
UACC-257 = assay: Growth inhibition of human UACC257 cells at 10 uM after 48 hrs by sulforhodamine B assay; details: UACC-257, 48 h, read-out: GI
UACC-62 = assay: Growth inhibition of human UACC62 cells at 10 uM after 48 hrs by sulforhodamine B assay; details: UACC-62, 48 h, read-out: GI
SF-539 = assay: Growth inhibition of human SF539 cells at 10 uM after 48 hrs by sulforhodamine B assay; details: SF-539, 48 h, read-out: GI
SNB-19 = assay: Growth inhibition of human SNB19 cells at 10 uM after 48 hrs by sulforhodamine B assay; details: SNB-19, 48 h, read-out: GI
U-251 = assay: Growth inhibition of human U251 cells at 10 uM after 48 hrs by sulforhodamine B assay; details: U-251, 48 h, read-out: GI

Compound: CO[C@@H]1[C@@H](OC)N(S(=O)(=O)c2ccc(Cl)cc2)C(=O)N1S(=O)(=O)c1ccc(Cl)cc1 (relative stereo)
- inhibition of growth at 10 µM (A549): 21.7%
- inhibition of growth at 10 µM (HOP-92): 49.9%
- inhibition of growth at 10 µM (NCI-H226): 4.24%
- inhibition of growth at 10 µM (NCI-H23): 8.09%
- inhibition of growth at 10 µM (NCI-H460): -1.36%
- inhibition of growth at 10 µM (NCI-H522): 26.7%
- inhibition of growth at 10 µM (COLO 205): -3.4%
- inhibition of growth at 10 µM (HCT-15): 19.8%
- inhibition of growth at 10 µM (KM12): 3.47%
- inhibition of growth at 10 µM (SW-620): 1.4%
- inhibition of growth at 10 µM (BT-549): 2.35%
- inhibition of growth at 10 µM (Hs-578T): -4.94%
- inhibition of growth at 10 µM (MDA-MB-231): 23.4%
- inhibition of growth at 10 µM (MDA-MB-468): 6.61%
- inhibition of growth at 10 µM (IGROV-1): 23.1%
- inhibition of growth at 10 µM (OVCAR-3): -4.48%
- inhibition of growth at 10 µM (DU-145): -9.28%
- inhibition of growth at 10 µM (PC-3): 29.8%
- inhibition of growth at 10 µM (CCRF-CEM): 15.5%
- inhibition of growth at 10 µM (HL-60(TB)): 3.82%
- inhibition of growth at 10 µM (K562): 23.2%
- inhibition of growth at 10 µM (MOLT-4): 43.5%
- inhibition of growth at 10 µM (RPMI-8226): 21.9%
- inhibition of growth at 10 µM (SR): 34.7%
- inhibition of growth at 10 µM (A498): 4.59%
- inhibition of growth at 10 µM (ACHN): 9.71%
- inhibition of growth at 10 µM (CAKI-1): 67.5%
- inhibition of growth at 10 µM (RXF 393): -11.5%
- inhibition of growth at 10 µM (SN12C): 14.4%
- inhibition of growth at 10 µM (TK-10): 7.51%
- inhibition of growth at 10 µM (UO-31): 39.4%
- inhibition of growth at 10 µM (LOX IMVI): 5.58%
- inhibition of growth at 10 µM (Malme-3M): 6.65%
- inhibition of growth at 10 µM (SK-MEL-2): 13.1%
- inhibition of growth at 10 µM (SK-MEL-28): -7.4%
- inhibition of growth at 10 µM (UACC-257): -11.6%
- inhibition of growth at 10 µM (UACC-62): 42.1%
- inhibition of growth at 10 µM (SF-539): -15.2%
- inhibition of growth at 10 µM (SNB-19): 2.72%
- inhibition of growth at 10 µM (U-251): 6.07%
